Results published in ChEMBL document CHEMBL3861978, “Dinoflagellate-Related Amphidinolides from the Brazilian Octocoral Stragulum bicolor” (J Nat Prod, 2016).

Experiment: Cytotoxicity against human HCT116 cells measured after 72 hrs by MTT assay
Format: functional, cell-based
Conditions: HCT-116, 72 h

## C=C1/C=C(\C)[C@](C)(O)C[C@H](O)CC(=O)[C@H](O)[C@@H](O)[C@H](C)C[C@H](C)OC(=O)/C(C)=C/CC/C=C/C(O)C(O)C[C@H](C)C1 (some centres not stated)
  IC50: 9.8 µM

## C=C1/C=C(\C)[C@@H](C)[C@@H](O)CC(=O)[C@@H](C)CC(=O)C[C@H]2CC[C@@H](O2)[C@@H](/C=C/C=C(\C)[C@@H](O)C(=C)CCC)OC(=O)C[C@@H]2O[C@H](C[C@H]2C)[C@H](O)C1
  IC50: 10.3 µM
